Laboratory results from US11925645B2, “Enhanced caffeinated beverage composition” (Ortho-Nutra, LLC, priority 2013, dated 2024).

Key:
[1] = test system: biomarkers of inflammation; test: Biomarkers of inflammation in humans; type: in vivo, human; details: acute inflammatory stressors or chronic consumption
From the text: Theacrine itself can reduce biomarkers of inflammation in humans in response to acute inflammatory stressors (e.g., intense exercise) or chronic consumption. Theacrine is shown to decrease C-reactive protein (CRP), Erythrocyte sedimentation rate (ESR), interleukin-6 (IL-6) and TNF-alpha.

[2] = Fourteen day study of repetitive dosing of theacrine and caffeine: psychometric indices; type: in vivo, human
[3] = Acute TeaCrine crossover trial: hemodynamics and side effect profiles; type: in vivo, human
Method: Anchored VAS questionnaires were used to detect changes in various aspects of physical and mental energy and performance; side effect profiles, hemodynamics and biochemical markers of safety were also collected over a 3-hr post-dosing period. A subset of 6 subjects underwent a separate 7-day, open-label, repeated dose study comparing 100 mg, 200 mg and 400 mg of TC.
Physical activity levels and health history were determined using standardized questionnaires. Heart rate and blood pressure were measured using an Omron HEM-780. Standing height was determined using a wall-mounted stadiometer. […] Medical Scale. A 100 mm anchored VAS questionnaire for energy, fatigue, and concentration was distributed at each acute lab session; additional VAS questionnaires were distributed for the daily assessment over a 6-hour period during the 7-day subset study. Quest Diagnostics (Pittsburgh, Pa.) was utilized to transport and analyze all blood samples. For each laboratory session, subjects reported to the lab well hydrated, 10-12 hours postprandial, and at least 24-hours after their last exercise session.
Statistical Analyses for Example 1. Descriptive statistics (mean, median, SD, 95% CIs) were used to quantify subjects physical characteristics. […] Effect sizes were also calculated. […]

[4] = Acute randomized placebo-controlled crossover trial of 200 mg TeaCrine: anchored VAS questionnaires; type: in vivo, human
Method: In order to examine the beneficial experiential effects and psychometric properties of theacrine supplementation in healthy subjects, explore optimal dosing and potential cumulative effects in a healthy human cohort with a 7-day, sub-acute repetitive dosing protocol, and acquire preliminary data on various biomarkers of safety and tolerability, an experiment was performed. […] A subset of 6 subjects underwent a separate 7-day, open-label, repeated dose study comparing 100 mg, 200 mg and 400 mg of TC. The experiment was a randomized, placebo-controlled, double-blind, within-subject crossover clinical trial (for N=15 study). A further subset study was open-label, sub-acute (7-day), repetitive dosing trial (for N=6 subset). Six (6) subjects provided written and dated informed consent to participate in the 7-day repetitive dosing study between Dec. 15, 2012 and Feb. 21, 2013. A separate cohort of fifteen (15) subjects provided written and dated informed consent for the acute dose, placebo-controlled, crossover clinical trial. All subjects were in good health as determined by physical examination and medical history, between the ages of 18 and 45 (inclusive). […] Subjects were willing and able to comply with the experimental and supplement protocol. […] Physical activity levels and health history were determined using standardized questionnaires. Heart rate and blood pressure were measured using an Omron HEM-780. Standing height was determined using a wall-mounted stadiometer. […] Medical Scale. A 100 mm anchored VAS questionnaire for energy, fatigue, and concentration was distributed at each acute lab session; additional VAS questionnaires were distributed for the daily assessment over a 6-hour period during the 7-day subset study. Quest Diagnostics (Pittsburgh, Pa.) was utilized to transport and analyze all blood samples. […] Statistical Analyses for Example 1. Descriptive statistics (mean, median, SD, 95% CIs) were used to quantify subjects physical characteristics. RM ANOVA, as well analyses of co-variance (ANCOVA), using baseline scores as the co-variate (respectively), were used to analyze between trial differences. Alpha was set to 0.05 (P≤0.05) for statistical significance, and <0.10 for trends. Effect sizes were also calculated. Upon arrival for the first testing session, subjects were randomly assigned to receive their respective supplement/placebo. Each subject ingested the sponsor recommended dosage of their respective supplement (1 capsule prior to schedule of assessments). Supplements were prepared in capsule form and packaged in coded generic containers for double-blind administration.

[5] = Theacrine-caffeine interaction study: heart rate, blood pressure, rate pressure product, tolerability; details: at the doses tested, administered alone or in combination
From the text: Study Design and Procedures. […] Theacrine, administered as iTeaCrine.®, was provided by Compound Solutions (Carlsbad, Calif). […] Treatment sequence was randomized using a 4×4 Latin square. There was an approximate 1-week washout period between treatments for all subjects.
Test Visit Procedures. […] A catheter was inserted into the forearm vein for blood sampling. Duplicate measurements of resting heart rate and blood pressure were taken pre-dose and prior to each timed blood sample. In addition, respiratory rate was counted in one minute and body temperature was measured using an ear scanning thermometer (dual readings taken at each time).
Differences between treatment group values were determined for systolic blood pressure (SBP), diastolic blood pressure (DBP), rate pressure product, and heart rate. Parametric data were analyzed by paired Student's t tests of mean differences in values between treatment groups. Statistical significance was defined a priori as a 2-sided or <0.05.

[6] = cited from earlier work
[7] = Single dose theacrine, caffeine or combination: subjective feelings on 10 cm visual analog scale; type: in vivo, human
Method: Subjects rated their subjective feelings using a 10 cm visual analog scale at 30 minutes, 1, 2, 3, 4, and 5 hours post ingestion and performed the trail making test (TMT) of cognitive performance at baseline and at hours 2 and 4 post ingestion.

Cn1c(=O)c2c(n(C)c1=O)n(C)c(=O)n2C [Theacrine, 1,3,7,9-tetramethylpurine-2,6,8-trione]
C-reactive protein (CRP) [1]: decrease | Erythrocyte sedimentation rate (ESR) [1]: decrease | TNF-alpha [1]: decrease | interleukin-6 (IL-6) [1]: decrease | anxiety [2]: decreased anxiety | psychometric indices of energy, focus, concentration, motivation and mood [2]: still maintained elevated | changes in systemic hemodynamics or side effect profiles ([3]; 200 mg dose of TC, 3-hr post-dosing period): No changes | systemic hemodynamics: systolic and diastolic blood pressure (FIGS. 4 and 5) ([3]; various time intervals after administration): no substantial change | concentration (VAS) ([4]; 200 mg dose of TC, single dose, trend, vs. PLA −[…], P=0.07): +2.4% | fatigue (VAS) ([4]; 200 mg dose of TC, single dose, vs. PLA +5.8%, P=0.04): −6.7% | energy (VAS) ([4]; 200 mg dose of TC, single dose, vs. PLA −5.7%, P=0.049): +8.6% | perceived energy on VAS (FIG. 2) ([4]; 1, 2 and 3 hours after administration, vs placebo): higher levels of energy | perceived fatigue on VAS (FIG. 3) ([4]; 60 minutes after administration, vs placebo): lower levels of fatigue | effect on baseline hemodynamic parameters, e.g. heart rate and blood pressure [5]: no effect | sensitization or pharmacodynamic tolerance ([6]; repeat dose theacrine studies): absence of either sensitization or pharmacodynamic tolerance | safety, adverse effects on hemodynamic parameters ([6]; theacrine supplementation up to 400 mg/day for 8 weeks): appears to be safe | time post-ingestion at which increase in subjective focus reached statistical significance ([7]; 125 mg theacrine treatment): 3 h | safety and improvement of subjective feelings related to energy ([7]; alone at 125 mg or in combination with caffeine): safe and effective
